Results reported in publication PMC8267566, “Human GPR17 missense variants identified in metabolic disease patients have distinct downstream signaling profiles” (The Journal of Biological Chemistry, 2021).
pIC50: −log10 of the molar value.

Experiments:
Test in all cases: GloSensor cAMP assay, inhibition of forskolin-stimulated cAMP
Assay type in all cases: cell-based
hGPR17L-F43L = target: T1, hGPR17L-F43L (Homo sapiens, UniProt Q13304, F43L)
T1 construct: expressed in transfected cells; host or cells: HEK293 (ATCC CRL-1573), transient transfection
T1 sequence (Q13304 whole entry F43L): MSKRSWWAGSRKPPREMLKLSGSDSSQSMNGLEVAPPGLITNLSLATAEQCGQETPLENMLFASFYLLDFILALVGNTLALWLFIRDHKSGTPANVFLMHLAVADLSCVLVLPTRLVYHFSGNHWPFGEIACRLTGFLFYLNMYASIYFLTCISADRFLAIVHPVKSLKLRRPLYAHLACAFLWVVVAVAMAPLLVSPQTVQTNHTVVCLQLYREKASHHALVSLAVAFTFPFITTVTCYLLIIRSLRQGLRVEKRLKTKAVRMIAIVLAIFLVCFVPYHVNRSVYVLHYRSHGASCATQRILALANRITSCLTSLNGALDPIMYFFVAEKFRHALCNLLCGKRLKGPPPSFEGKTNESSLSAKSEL
Protocol: (§1) HEK293 cells were seeded at 20,000 cells/well into white, opaque 96-well plates. The next day, cells were transiently cotransfected with pGloSensor-cAMP-22F and pcDNA3-HA-hGPR17L or pcDNA3-HA-hGPR17L-variants using lipofectamine 3000. Twenty-four hours posttransfection, growth medium and transfection mix were aspirated and replaced with 100 μl/well equilibration medium (2% Promega GloSensor cAMP reagent [E1291; Promega Corporation] in CO2-independent medium) and incubated at room temperature for 2 h. Baseline luminescence was read on a Molecular Devices SpectraMax iD5 plate reader (Molecular Devices) at ambient room temperature for 8 min. Subsequently, 10 μl/well MDL29,951 diluted in assay buffer (HBSS, 20 mM HEPES, pH 7.2) was added and luminescence was read for 10 min. Finally, 10 μl/well forskolin (1099; Tocris Bioscience) diluted in assay buffer was added and luminescence was measured for 20–30 min. The average luminescence value for the 14–20 min time points for each well was normalized to their average baseline luminescence value and expressed as a percentage of the forskolin-stimulated response within each transfection condition.

hGPR17L-V103M = target: T2, hGPR17L-V103M (Homo sapiens, UniProt Q13304, V103M)
T2 construct: expressed in transfected cells; host or cells: HEK293 (ATCC CRL-1573), transient transfection
T2 sequence (Q13304 whole entry V103M): as the sequence (Q13304 whole entry F43L) above, with L43F, V103M counted along it
Protocol: as §1

hGPR17L-A131T = target: T3, hGPR17L-A131T (Homo sapiens, UniProt Q13304, A131T)
T3 construct: expressed in transfected cells; host or cells: HEK293 (ATCC CRL-1573), transient transfection
T3 sequence (Q13304 whole entry A131T): as the sequence (Q13304 whole entry F43L) above, with L43F, A131T counted along it
Protocol: as §1

hGPR17L-D105N = target: T4, hGPR17L-D105N (Homo sapiens, UniProt Q13304, D105N)
T4 construct: expressed in transfected cells; host or cells: HEK293 (ATCC CRL-1573), transient transfection
T4 sequence (Q13304 whole entry D105N): as the sequence (Q13304 whole entry F43L) above, with L43F, D105N counted along it
Protocol: as §1

hGPR17L-R301H = target: T5, hGPR17L-R301H (Homo sapiens, UniProt Q13304, R301H)
T5 construct: expressed in transfected cells; host or cells: HEK293 (ATCC CRL-1573)
T5 sequence (Q13304 whole entry R301H): as the sequence (Q13304 whole entry F43L) above, with L43F, R301H counted along it
Protocol: as §1

hGPR17L-G136S = target: T6, hGPR17L-G136S (Homo sapiens, UniProt Q13304, G136S)
T6 construct: expressed in transfected cells; host or cells: HEK293 (ATCC CRL-1573), transient transfection
T6 sequence (Q13304 whole entry G136S): as the sequence (Q13304 whole entry F43L) above, with L43F, G136S counted along it
Protocol: as §1

hGPR17L-WT = target: T7, hGPR17L-WT (Homo sapiens, UniProt Q13304)
T7 construct: expressed in transfected cells; host or cells: HEK293 (ATCC CRL-1573), transient transfection of pcDNA3-HA-hGPR17L
T7 sequence (Q13304 whole entry): as the sequence (Q13304 whole entry F43L) above, with L43F counted along it
Protocol: as §1

hGPR17L-R248Q = target: T8, hGPR17L-R248Q (Homo sapiens, UniProt Q13304, R248Q)
T8 construct: expressed in transfected cells; host or cells: HEK293 (ATCC CRL-1573), transient transfection
T8 sequence (Q13304 whole entry R248Q): as the sequence (Q13304 whole entry F43L) above, with L43F, R248Q counted along it
Protocol: as §1

[1] = HEK293, inhibition of 3 μM forskolin-stimulated cAMP
[2] = read-out: cAMP IC50, HEK293, inhibition of 3 μM forskolin-stimulated cAMP

SMILES: O=C(O)CCc1c(C(=O)O)[nH]c2cc(Cl)cc(Cl)c12 [MDL29,951]
- cAMP Efficacy (% inhibition) (hGPR17L-F43L; HEK293, 3 μM forskolin): 44 ± 2.7 % inhibition
- cAMP 10 μM MDL +3 μM FSK (% of FSK) (hGPR17L-F43L; HEK293, 10 μM MDL29,951): 107 ± 24 % of FSK
- cAMP 100 μM MDL +3 μM FSK (% of FSK) (hGPR17L-F43L; HEK293, 100 μM MDL29,951): 145 ± 30 % of FSK
- cAMP pIC50 ± SEM (hGPR17L-F43L; [1]): 8.81 ± 0.37
- pIC50 (hGPR17L-F43L; [2]): 8.80
- cAMP Efficacy (% inhibition) (hGPR17L-V103M; HEK293, 3 μM forskolin): 40 ± 1.3 % inhibition
- cAMP 10 μM MDL +3 μM FSK (% of FSK) (hGPR17L-V103M; HEK293, 10 μM MDL29,951): 81 ± 4.0 % of FSK
- cAMP 100 μM MDL +3 μM FSK (% of FSK) (hGPR17L-V103M; HEK293, 100 μM MDL29,951): 101 ± 4.0 % of FSK
- cAMP pIC50 ± SEM (hGPR17L-V103M; [1]): 9.24 ± 0.41
- pIC50 (hGPR17L-V103M; [2]): 9.24
- cAMP Efficacy (% inhibition) (hGPR17L-A131T; HEK293, 3 μM forskolin): 44 ± 4.5 % inhibition
- cAMP 10 μM MDL +3 μM FSK (% of FSK) (hGPR17L-A131T; HEK293, 10 μM MDL29,951): 77 ± 3.5 % of FSK
- cAMP 100 μM MDL +3 μM FSK (% of FSK) (hGPR17L-A131T; HEK293, 100 μM MDL29,951): 109 ± 5.3 % of FSK
- cAMP pIC50 ± SEM (hGPR17L-A131T; [1]): 8.31 ± 0.13
- pIC50 (hGPR17L-A131T; [2]): 8.31
- fold less potent for inhibition of forskolin-stimulated cAMP relative to hGPR17L-WT (hGPR17L-D105N): sixfold less potent
- cAMP Efficacy (% inhibition) (hGPR17L-D105N; HEK293, 3 μM forskolin): 48 ± 4.7 % inhibition
- cAMP 10 μM MDL +3 μM FSK (% of FSK) (hGPR17L-D105N; HEK293, 10 μM MDL29,951): 49 ± 7.3 % of FSK
- cAMP 100 μM MDL +3 μM FSK (% of FSK) (hGPR17L-D105N; HEK293, 100 μM MDL29,951): 56 ± 10 % of FSK
- cAMP pIC50 ± SEM (hGPR17L-D105N; [1]): 7.75 ± 0.25
- pIC50 (hGPR17L-D105N; [2]): 7.74
- cAMP Efficacy (% inhibition) (hGPR17L-R301H; HEK293, 3 μM forskolin): 52 ± 5.2 % inhibition
- cAMP 10 μM MDL +3 μM FSK (% of FSK) (hGPR17L-R301H; HEK293, 10 μM MDL29,951): 72 ± 2.5 % of FSK
- cAMP 100 μM MDL +3 μM FSK (% of FSK) (hGPR17L-R301H; HEK293, 100 μM MDL29,951): 101 ± 2.9 % of FSK
- cAMP pIC50 ± SEM (hGPR17L-R301H; [1]): 8.00 ± 0.46
- pIC50 (hGPR17L-R301H; [2]): 8.00
- fold less potent for inhibition of forskolin-stimulated cAMP relative to hGPR17L-WT (hGPR17L-G136S): approximately 400 fold
- cAMP Efficacy (% inhibition) (hGPR17L-G136S; HEK293, 3 μM forskolin): 39 ± 2.3 % inhibition
- cAMP 10 μM MDL +3 μM FSK (% of FSK) (hGPR17L-G136S; HEK293, 10 μM MDL29,951): 65 ± 5.0 % of FSK
- cAMP 100 μM MDL +3 μM FSK (% of FSK) (hGPR17L-G136S; HEK293, 100 μM MDL29,951): 60 ± 3.4 % of FSK
- cAMP pIC50 ± SEM (hGPR17L-G136S; [1]): 5.89 ± 0.30
- pIC50 (hGPR17L-G136S; [2]): 5.89
- cAMP Efficacy (% inhibition) (hGPR17L-WT; HEK293, 3 μM forskolin): 47 ± 2.5 % inhibition
- cAMP 10 μM MDL +3 μM FSK (% of FSK) (hGPR17L-WT; HEK293, 10 μM MDL29,951): 92 ± 4.4 % of FSK
- cAMP 100 μM MDL +3 μM FSK (% of FSK) (hGPR17L-WT; HEK293, 100 μM MDL29,951): 115 ± 6.1 % of FSK
- cAMP pIC50 ± SEM (hGPR17L-WT; [1]): 8.52 ± 0.13
- pIC50 (hGPR17L-WT; [2]): 8.52
- cAMP Efficacy (% inhibition) (hGPR17L-R248Q; HEK293, 3 μM forskolin): 41 ± 3.9 % inhibition
- cAMP 10 μM MDL +3 μM FSK (% of FSK) (hGPR17L-R248Q; HEK293, 10 μM MDL29,951): 84 ± 5.5 % of FSK
- cAMP 100 μM MDL +3 μM FSK (% of FSK) (hGPR17L-R248Q; HEK293, 100 μM MDL29,951): 98 ± 6.7 % of FSK
- cAMP pIC50 ± SEM (hGPR17L-R248Q; [1]): 8.73 ± 2.2
- pIC50 (hGPR17L-R248Q; [2]): 8.72
